Assay: ABTS assay, cell-free in vitro test of antioxidative capacity
Assay type: biochemical
Text: ABTS assay is a cell-free in vitro test for evaluation of antioxidative capacity (literature: Re R, Pellegrini N, Proteggente A, Pannala A, Yang M, Rice-Evans C. 1999. “Antioxidant activity applying an improved ABTS radical cation decolorization assay”; Free Radic. Biol. Med. 26: 1231-7). The assay uses the intrinsic colouration of a solution prepared with the cationic radical 2,2′-azinobis(3-ethylbenzothiazoline-6-sulfonic acid) (ABTS+) and potassium persulfate, which is decolourized by addition of antioxidants (reduction of the cationic radical). This decolouration can be measured photometrically at 734 nm. The test is carried out in 96-well microtitre plates. […] All the ABTS test results result from two independent experiments and are presented as means with the associated deviation from the mean.
In order to test whether the antioxidative activity of styrylresorcinol (formula 3; CARN 85-27-8; 4-(1-phenylethyl)-1,3-dihydroxybenzene) is adversely influenced by the presence of significant amounts of oily phase, in a further experiment the antioxidative capacity of two products comprising 30 percent by weight of 2-ethylhexyl isononanoate (INCI Ethylhexyl Isononanoate; product A) and, respectively, 5 percent by weight of 2-ethylhexyl isononanoate (INCI Ethylhexyl Isononanoate; product B) was determined with the aid of ABTS assay.

## CC(c1ccccc1)c1ccc(O)cc1O (stereo not drawn) [Styrylresorcinol, 4-(1-phenylethyl)-1,3-dihydroxybenzene]
5% of oily phase
  reduction in the antioxidative capacity compared with the oil-free reference sample: 1.6%
30% of oily phase, 0.01% styrylresorcinol
  deterioration in the antioxidative capacity compared with the oil-free reference sample: 13.5%
ABTS, versus alpha-tocopherol
  antioxidative capacity greater than that of the reference substance alpha-tocopherol, factor: ~2
Ethanolic solution containing 0.01% styrylresorcinol with 30% of oily phase (product A)
  antioxidative capacity: 79.4%
Mixture according to the invention comprising only 5% of oily phase (product B)
  antioxidative capacity: 91.35
oil-free reference sample containing only 0.01% styrylresorcinol (product C)
  antioxidative capacity: 92.9%
